{"source": "patent US20090028820A1", "about": "“Antiviral Agent” (MITSUBISHI TANABE PHARMA CORPORATION, priority 2005, published 2009)", "key": {"[1]": {"test_system": "HCV-replicon", "test": "Inhibition of HCV-replicon replication in HCV-replicon cells (quantitative PCR of replicon RNA)", "assay_type": "cell-based, Hepatitis C virus", "settings": "for inhibition of replication of the HCV-replicon: HGF alone, clone #5-15, 48 hours", "protocol": "As a cell system for in vitro replication of HCV, an HCV-replicon cell clone #5-15 derived from the human liver cancer cell strain Huh7 was used (purchased from ReBLikon GmbH). The clone #5-15 was suspended in the Dulbecco's Eagle's MEM medium containing 2% fetal bovine serum, and seeded on a 96-well plate at 1.5×10^4 cells/100 μl/well. As blank, wells added with the medium alone was prepared without seeding the cells (Day 0). After culture overnight in a humid incubator at 37° C. under 5% CO2 gas, 50 μl each of human recombinant IFNα (BIOMEDICAL LABORATORIES, Cat. No. 11105-1, lot No. #2122) and/or human recombinant HGF (produced in-house, Lot No. 920629) was added to each well. The final concentrations of IFNα were 0, 0.1 and 0.3 international unit (IU)/ml, the final concentrations of HGF were 0, 10 and 100 ng/ml, and the final volume was adjusted to 200 μl for all the wells. Three wells (triplicate) were prepared for each sample (Day 1). After culture for 48 hours, total RNA was extracted from each well by using ABI-PRIZM 6100 Nucleic Acid PrepStation (Applied Biosystems). Extraction was performed according to the operation manual of the apparatus. The solution of the extracted RNA was stored at −80° C. (Day 3). The samples were thawed on the next day, and amounts of the HCV-replicon RNA were quantified by quantitative polymerase chain reaction (PCR). The quantification was performed according to the method of Takeuchi et al. (Takeuchi, T. et al., Gastroenterology, Vol. 116, 636-642 (1999)) by using ABI PRISM 7900 (Applied Biosystems).\nRNAs used in the quantitative PCR for a standard curve were prepared by in vitro transcription using a vector obtained by ligating the gene of the HCV MKC-1A strain (Genbank accession No. D45172) to the downstream of the T7 promoter using T7 RiboMAX Express Large Scale RNA Production System (Promega), and it was confirmed that linearity was obtainable between 10^2 and 10^8 in the aforementioned quantitative PCR."}, "[2]": {"test_system": "HCV-replicon cell clone #5-15 derived from Huh7", "test": "Growth of HCV-replicon cell strain (Cell Titer 96 Aqueous One Solution Cell Proliferation Assay, absorbance 490 nm)", "assay_type": "cell-based, human", "settings": "HGF 0, 10, 100 ng/ml; IFNα 0, 0.1, 0.3 IU/ml; 48 hours", "protocol": "To determine whether or not the decreases in the replication of HCV-replicons observed in Example 1 were attributable to the decrease in the cell count itself, the following experiment was performed.\nThe clone #5-15 was suspended in Dulbecco's Eagle's MEM medium containing 2% fetal bovine serum, and seeded on a 96-well plate at 1.5×10^4 cells/100 μl/well. As blank, wells added with a medium alone was prepared without seeding cells (Day 0). After culture overnight in a humid incubator at 37° C. under 5% CO2 gas, 50 μl each of human recombinant IFNα (BIOMEDICAL LABORATORIES, Cat. No. 11105-1, lot No. #2122) and/or human recombinant HGF (produced in-house, Lot No. 920629) was added to each well. The final concentrations of IFNα were 0, 0.1 and 0.3 international unit (IU)/ml, the final concentrations of HGF were 0, 10 and 100 ng/ml, and the final volume was adjusted to 200 μl for all the wells. Three wells (triplicate) were prepared for each sample (Day 1). After culture for 48 hours, the number of cells was measured by Cell Titer 96 Aqueous One Solution Cell Proliferation Assay (Promega, Lot #171755), which is a type of cell growth assay kit. The measurement was performed according to the manual of the assay kit. […] Then, the plate was incubated for one hour in a humid incubator containing 5% CO2 set at 37° C., and then measured at absorbance 490 nm by using a 96-well plate reader."}, "[3]": {"test_system": "Hepatitis C virus", "settings": "cited from earlier work"}, "[4]": {"test_system": "HCV-subgenomic replicon", "settings": "Huh7 cells; cited from earlier work"}}, "data": [{"molecule": "HGF: human recombinant HGF (produced in-house, Lot No. 920629); hepatocyte growth factor", "values": [{"measurement": "effect of HGF on IFN-dependent inhibition of virus replication", "setting": "[1]; HGF 10 ng/ml combined with IFN", "value": "synergistically enhanced"}, {"measurement": "inhibition of replication of the HCV-replicon", "setting": "[1]; 10 ng/ml", "value": "almost no inhibition of the replication was observed"}, {"measurement": "inhibition of replication of the HCV-replicon", "setting": "[1]; 100 ng/ml", "value": "inhibited the replication of the HCV-replicon"}, {"measurement": "effect of HGF on inhibition of HCV-replicon replication by IFN", "setting": "[1]; HGF combined with IFN 0.1 IU/ml", "value": "synergistically acted to inhibit the replication of HCV-replicons"}, {"measurement": "effect of HGF on inhibition of HCV-replicon replication by IFN", "setting": "[1]; HGF combined with IFN 0.3 IU/ml", "value": "effect of HGF was not observed"}, {"measurement": "inhibition of growth of the HCV-replicon cell line", "setting": "[2]", "value": "not observed to inhibit the growth"}]}, {"molecule": "NC(=O)c1ncn([C@@H]2O[C@H](CO)[C@@H](O)[C@H]2O)n1", "note": "[Ribavirin, ribavirin]", "values": [{"measurement": "efficacy against HCV", "setting": "[3]; agent alone", "value": "ineffective"}]}, {"molecule": "COc1ccc2c(O[C@@H]3C[C@H]4C(=O)N[C@]5(C(=O)O)C[C@H]5/C=C\\CCCCC[C@H](NC(=O)OC5CCCC5)C(=O)N4C3)cc(-c3csc(NC(C)C)n3)nc2c1", "note": "[BILN-2061]", "values": [{"measurement": "inhibition of replication of replicon RNA", "setting": "[4]", "value": "inhibits replication of replicon RNA"}, {"measurement": "improvement of viremia", "setting": "[3]; patients with hepatitis C", "value": "confirmed to improve viremia"}]}]}
